The record followed here is article PMC8286840, “Identifying SARS-CoV-2 antiviral compounds by screening for small molecule inhibitors of Nsp3 papain-like protease” (Biochemical Journal, 2021).

Experiment [1] deals with T1, SARS-CoV-2 PLpro (nsp3 1564–1878) (Severe acute respiratory syndrome coronavirus 2, UniProt P0DTD1). Briefly: biochemical. The note with it: low concentration screen, read-out: % of control remaining. More on the design: FRET-quenched peptide (Pro3) cleavage by PLpro, 10 min pre-incubation, slope over 20 min, normalised to no-compound control.
The target in experiment [2] is T1, SARS-CoV-2 PLpro (nsp3 1564–1878). Briefly: biochemical. To be noted: high concentration screen, read-out: % of control remaining. More on the design: FRET-quenched peptide (Pro3) cleavage by PLpro, 10 min pre-incubation, slope over 20 min, normalised to no-compound control.

Molecules are shown by their SMILES. Where a name gives a salt, the structure may show the parent alone. Read-outs that look alike come from different tables or passages of the source.

Take `OC[C@H]1O[C@@H](n2cnc3c(N[C@@H]4CCOC4)ncnc32)[C@H](O)[C@@H]1O` [Tecadenoson]: the remaining activity at 1.25 µM in experiment [1] (Well no.=7966) is 96.9%; in experiment [1] (Well no.=8315), 94.2%. Further, the remaining activity at 3.75 µM in experiment [2] (Well no.=7966) was 96.1%; in experiment [2] (Well no.=8315), 94.4%.

`CCCCCNC(=N)N/N=C/c1c[nH]c2ccc(OC)cc12` [Tegaserod (maleate)]: the remaining activity at 1.25 µM in experiment [1] (Well no.=6615) stood at 103%. In experiment [2] (Well no.=6615), the remaining activity at 3.75 µM was 104%.

Take `O=C(CNC(=O)c1cccc(C(F)(F)F)c1)N[C@@H]1CCN(Cc2ccc(Cl)cc2)C1` [Teijin compound 1 hydrochloride]: the remaining activity at 1.25 µM in experiment [1] (Well no.=5505) was 104%. Besides, the remaining activity at 3.75 µM in experiment [2] (Well no.=5505) was 112%.

For the compound `CNC(=O)c1cc(COc2nnc(Nc3ccc(Cl)cc3)c3ccoc23)ccn1` [Telatinib (BAY 57-9352)], in experiment [1] (Well no.=4858), the remaining activity at 1.25 µM was found to be 99.7%. Besides, the remaining activity at 3.75 µM in experiment [2] (Well no.=4858) came out at 104%.

As for `Cc1cn([C@@H]2C[C@@H](O)[C@H](CO)O2)c(=O)[nH]c1=O` [Telbivudine], the results for the remaining activity at 1.25 µM in experiment [1] (Well no.=8380) and in experiment [1] (Well no.=8839) were 92.4% and 98.6%, respectively. The figures for the remaining activity at 3.75 µM in experiment [2] (Well no.=8380) and in experiment [2] (Well no.=8839) were 92.3% and 96.3%, respectively.

As for `Cc1scc2c1N(C(=O)CN1CCN(C)CC1)c1ccccc1NC2=O` [Telenzepine dihydrochloride], the remaining activity at 1.25 µM in experiment [1] (Well no.=1186) is 95.7%. Besides, the remaining activity at 3.75 µM in experiment [2] (Well no.=1186) came to 97.7%.

For the compound `CCCc1nc2c(C)cc(-c3nc4ccccc4n3C)cc2n1Cc1ccc(-c2ccccc2C(=O)O)cc1` [Telmisartan], the remaining activity at 1.25 µM turned out to be 95.4% in experiment [1] (Well no.=2297) and 105% in experiment [1] (Well no.=6283). Moreover, the remaining activity at 3.75 µM in experiment [2] (Well no.=2297) is 94.3%; in experiment [2] (Well no.=6283), 108%.

As for `CCOC(=O)[C@@H](N)Cc1ccc(-c2cc(O[C@H](c3ccc(Cl)cc3-n3ccc(C)n3)C(F)(F)F)nc(N)n2)cc1` [Telotristat Etiprate (LX 1606 Hippurate)], the remaining activity at 1.25 µM in experiment [1] (Well no.=8288) amounted to 92.6%. Moreover, the remaining activity at 3.75 µM in experiment [2] (Well no.=8288) was determined as 92.1%.

In the case of `CCOC(=O)[C@H](CCc1ccccc1)N[C@H]1CS[C@H](c2cccs2)CN(CC(=O)O)C1=O` [Temocapril (hydrochloride)], the remaining activity at 1.25 µM in experiment [1] (Well no.=8218) amounted to 103%. The remaining activity at 3.75 µM in experiment [2] (Well no.=8218) was 99.9%.

As for `CCOC(=O)[C@H](CCc1ccccc1)N[C@H]1CS[C@H](c2cccs2)CN(CC(=O)O)C1=O` [Temocapril HCl], in experiment [1] (Well no.=4764), the remaining activity at 1.25 µM was 106%. In experiment [2] (Well no.=4764), the remaining activity at 3.75 µM is 109%.

With `Cn1nnc2c(C(N)=O)ncn2c1=O` [Temozolomide], the remaining activity at 1.25 µM in experiment [1] (Well no.=1952) was 95%. Further, the remaining activity at 3.75 µM in experiment [2] (Well no.=1952) is 99.1%.

In the case of `COc1cnc(-n2cnc(C)n2)c2[nH]cc(C(=O)C(=O)N3CCN(C(=O)c4ccccc4)CC3)c12` [Temsavir], the remaining activity at 1.25 µM in experiment [1] (Well no.=7886) was determined as 97.2%. Further, the remaining activity at 3.75 µM in experiment [2] (Well no.=7886) worked out at 98%.

Consider `CO[C@H]1C[C@@H]2CC[C@@H](C)[C@@](O)(O2)C(=O)C(=O)N2CCCC[C@H]2C(=O)O[C@H]([C@H](C)C[C@@H]2CC[C@@H](OC(=O)C(C)(CO)CO)[C@H](OC)C2)CC(=O)[C@H](C)/C=C(\C)[C@@H](O)[C@@H](OC)C(=O)[C@H](C)C[C@H](C)/C=C/C=C/C=C/1C` [Temsirolimus], for which the remaining activity at 1.25 µM in experiment [1] (Well no.=8412) amounted to 95.2%. The remaining activity at 3.75 µM in experiment [2] (Well no.=8412) was determined as 91.8%.

For `COc1ccc2[nH]c([S+]([O-])Cc3ncc(C)c(OC)c3C)nc2n1` (stereo not shown) [Tenatoprazole], in experiment [1] (Well no.=1950), the remaining activity at 1.25 µM stood at 98.5%. The remaining activity at 3.75 µM in experiment [2] (Well no.=1950) was determined as 95.8%.

`Cc1cc(N2CCN([C@@H]3CN[C@H](C(=O)N4CCSC4)C3)CC2)n(-c2ccccc2)n1` [Teneligliptin hydrobromide]: the remaining activity at 1.25 µM in experiment [1] (Well no.=8110) was found to be 107%. In addition, in experiment [2] (Well no.=8110), the remaining activity at 3.75 µM was 106%.

`CC(C)OC(=O)OCOP(=O)(CO[C@H](C)Cn1cnc2c(N)ncnc21)OCOC(=O)OC(C)C` [Tenofovir Disoproxil Fumarate]: in experiment [1] (Well no.=4811), the remaining activity at 1.25 µM is 97.8%. The remaining activity at 3.75 µM in experiment [2] (Well no.=4811) was 99.5%.

In the case of `CC(=O)Nc1ccc(NC(=S)NC(=O)c2ccc(C(C)(C)C)cc2)cc1` [Tenovin-1], the remaining activity at 1.25 µM in experiment [1] (Well no.=4784) is 95.1%; in experiment [1] (Well no.=7160), 98.9%. Further, the remaining activity at 3.75 µM in experiment [2] (Well no.=4784) is 96.5%.

For the compound `CC(C)(C)c1ccc(C(=O)NC(=S)Nc2ccc(N)cc2)cc1` [Tenovin-3], in experiment [1] (Well no.=7072), the remaining activity at 1.25 µM came out at 102%. Further, in experiment [2] (Well no.=7072), the remaining activity at 3.75 µM worked out at 97.4%.

For the compound `CN(C)CCCCC(=O)Nc1ccc(NC(=S)NC(=O)c2ccc(C(C)(C)C)cc2)cc1` [Tenovin-6], the remaining activity at 1.25 µM in experiment [1] (Well no.=6724) amounted to 93.8%. Further, the remaining activity at 3.75 µM in experiment [2] (Well no.=6724) came to 92%.

Consider `CN1C(C(=O)Nc2ccccn2)=C(O)c2sccc2S1(=O)=O` [Tenoxicam], for which the remaining activity at 1.25 µM in experiment [1] (Well no.=2299) was 98.3%. The remaining activity at 3.75 µM in experiment [2] (Well no.=2299) was 101%.

Regarding `COc1cc2nc(N3CCN(C(=O)C4CCCO4)CC3)nc(N)c2cc1OC` (stereo not shown) [Terazosin (hydrochloride dihydrate)], the remaining activity at 1.25 µM in experiment [1] (Well no.=7519) came out at 98.6%. In addition, in experiment [2] (Well no.=7519), the remaining activity at 3.75 µM was determined as 84.5%.

Turning to `COc1cc2nc(N3CCN(C(=O)C4CCCO4)CC3)nc(N)c2cc1OC` (stereo not shown) [Terazosin hydrochloride], in experiment [1] (Well no.=1241), the remaining activity at 1.25 µM came out at 98.7%. Moreover, the remaining activity at 3.75 µM in experiment [2] (Well no.=1241) worked out at 92.5%.

With `COc1cc2nc(N3CCN(C(=O)C4CCCO4)CC3)nc(N)c2cc1OC` (stereo not shown) [Terazosin], the remaining activity at 1.25 µM in experiment [1] (Well no.=2301) turned out to be 90.8%. Further, the remaining activity at 3.75 µM in experiment [2] (Well no.=2301) worked out at 89.8%.

`CN(C/C=C/C#CC(C)(C)C)Cc1cccc2ccccc12` [Terbinafine]: the remaining activity at 1.25 µM in experiment [1] (Well no.=1580) amounted to 95%. In experiment [2] (Well no.=1580), the remaining activity at 3.75 µM came out at 97.8%.

Regarding `CC(C)(C)NCC(O)c1cc(O)cc(O)c1` (stereo not shown) [Terbutaline (sulfate)], the remaining activity at 1.25 µM in experiment [1] (Well no.=6709) turned out to be 106%. Moreover, the remaining activity at 3.75 µM in experiment [2] (Well no.=6709) turned out to be 106%.

As for `CC(C)(C)NCC(O)c1cc(O)cc(O)c1` (stereo not shown) [Terbutaline hemisulfate], in experiment [1] (Well no.=1189), the remaining activity at 1.25 µM was determined as 98.5%. Besides, the remaining activity at 3.75 µM in experiment [2] (Well no.=1189) came to 100%.

As to `O=C(O)c1ccc(C(=O)O)cc1` [Terephthalic acid], the remaining activity at 1.25 µM in experiment [1] (Well no.=7501) came to 106%. In experiment [2] (Well no.=7501), the remaining activity at 3.75 µM was 103%.

Consider `CC(C)(C)c1ccc(C(O)CCCN2CCC(C(O)(c3ccccc3)c3ccccc3)CC2)cc1` (stereo not shown) [Terfenadine], for which the remaining activity at 1.25 µM in experiment [1] (Well no.=1232) worked out at 100%; in experiment [1] (Well no.=1742), 97.7%; in experiment [1] (Well no.=6598), 103%. Further, the results for the remaining activity at 3.75 µM in experiment [2] (Well no.=1232), in experiment [2] (Well no.=1742) and in experiment [2] (Well no.=6598) were 102%, 98.6% and 104%, respectively.
